Assay results from US20240307396A1, “COMPOSITIONS AND METHODS FOR TREATING CELIAC DISEASE” (THE REGENTS OF THE UNIVERSITY OF CALIFORNIA, priority 2021, published 2024).
“Also recorded” adds a separate entry of the source.

What was measured:
[1] = system: Type II refractory celiac disease; assay: Trend of pertinent laboratory values in a Type II RCD patient across sequential treatments; format: in vivo, human; design: CRP: unit not given beside the values; details: for CRP / DGP IgA / TTG IgA: same patient, Budesonide 3 m, Infliximab 1 y, Cladribine 1.5 y, Tofacitinib 2 y
Text: A person with a past medical history significant for Hashimoto's thyroiditis and positive celiac serology was initially seen for protein-losing enteropathy. Although they had previously been on a gluten-free diet (GFD) for 1 year after first being diagnosed with CD, they re-introduced gluten 3 years before pregnancy without symptoms. They stayed on gluten until one-month postpartum when they developed epigastric pain, nausea, diarrhea with 2-3 loose to watery stools daily, along with significant bilateral lower extremity edema.
At the time of initial hospital admission, they were five months postpartum with the above symptomatology. […] They were discharged to outpatient setting on a GFD and referred to a CD clinic for management.
(§1) During the initial outpatient visit in the CD clinic they were hypotensive with anasarca, diagnosed with celiac crisis, and urgently sent for readmission. They were treated with 72 hours of intravenous solumedrol 20 mg every 12 hours and then transitioned to open-capsule protocol budesonide 3 mg three times a day.
(§2) They were therefore switched to experimental infliximab after a total of 5 months on budesonide.
(§3) The patient was now about 18 months out from diagnosis of Type II RCD, which is associated with about 50% risk of lymphoma in 5 years, so it was imperative to find an effective regimen. […] Discussion of associated adverse events, including thromboembolic ones, was conducted, and pre-treatment labs including lipid profile were done. […] This was the first-time the patient achieved such results in the 2 years since presenting with celiac crisis. […] Their tofacitinib dose will be reduced to 5 mg twice daily to reduce associated adverse events.

[2] = system: Type II refractory celiac disease; assay: Endoscopic and clinical response of the Type II RCD patient; format: in vivo, human; details: for Endoscopic finding (ulcerative jejunitis / duodenopathy): budesonide 3 months, infliximab 9 months, tofacitinib 10 mg twice daily, four months
Experimental: as §1, §2, §3
However, malabsorption, malignancy, morbidity and mortality are known complications in Type II RCD (Cellier et al. (2000); Ilus et al. (2014); Weiss (2021) Diagnosis and Management of Gluten-Associated Disorders: A clinical casebook. Springer). Currently, the best clinical practice in managing RCD is to advocate for experimental medication treatment in adjunct to a strict gluten-free diet (GFD). Yet the same guidelines acknowledge the absence of treatments with proven efficacy in Type II RCD (Rubio-Tapia et al. (2013) Am. J. Gastroenterol., 108(5):656-677; Al-Toma et al. (2019) United European Gastroenterol. J.: 7(5):583-613). The European guidelines discuss the potential use of AMG714 or JAK inhibitor after corticosteroids, immunomodulators, and chemotherapy in the most refractory of CD cases. […] Additional studies are needed, but the therapy disclosed herein may be utilized in uncomplicated CD or non-responsive CD (NRCD) in combination with a GFD, or even as a substitute to one.

[3] = system: Type II refractory celiac disease; assay: Small bowel biopsy histology (modified Marsh classification) and immunophenotype in the Type II RCD patient; format: in vivo, human; details: for Pathology (Marsh lesion): same patient, Budesonide 3 m, Infliximab 1 y, Cladribine 1.5 y, Tofacitinib 2 y; for Marsh lesions on biopsy: tofacitinib 10 mg twice daily, four months
Text: CD can be characterized using the modified Marsh classification scheme. A subject having a Marsh 0 score would be characterized as either healthy or if previously diagnosed with CD, as “CD in remission”. A Marsh 1 score is non-specific, rarely seen in CD, unless already on a GFD during endoscopy, and may be observed in subjects having dermatitis herpetiformis (DH) or in family members of CD patients, but also with other conditions as infections and adverse response to medications. A Marsh 2 score is rare and is sometimes observed in DH and again in CD patients already on a GFD. Marsh 3 score is characteristic of the spectrum of changes observed in symptomatic CD patients.
as §1, §2, §3

IL-15 = IL-15 (Homo sapiens, UniProt P40933); details: cited from earlier work
Chain of IL-15 (P40933 49-162): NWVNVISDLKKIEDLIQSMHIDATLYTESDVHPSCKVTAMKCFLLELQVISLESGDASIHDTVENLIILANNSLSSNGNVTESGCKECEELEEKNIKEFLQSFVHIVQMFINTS

[4] = budesonide 3 months, infliximab 9 months

| Compound | CRP [1] | DGP IgA [1] | TTG IgA [1] | Resolution of RCD ([2]; one dose of cladribine 10 mg IV) | Pathology (Marsh lesion) [3] | CD serologies ([1]; four months after start of tofacitinib 10 mg twice daily) | Endoscopic finding (ulcerative jejunitis / duodenopathy) [2] | Symptoms ([2]; during tofacitinib therapy) | Marsh lesions on biopsy [3, 4] | Duodenal bulb biopsy histology (H&E) ([3]; during tofacitinib therapy, FIG. 2D) | Results of AMG714 (IL-15) | T-cell aberrancy / CD8 expression in intraepithelial T-lymphocytes [3, 4] |
| --- | --- | --- | --- | --- | --- | --- | --- | --- | --- | --- | --- | --- |
| Nc1nc(Cl)nc2c1ncn2[C@H]1C[C@H](O)[C@@H](CO)O1 [Cladribine, cladribine] | <0.3 | 57.7 (H) | 44.3 (H) | without resolution of their RCD | Marsh 3A | – | – | – | – | – | – | – |
| CCCC1O[C@@H]2C[C@H]3[C@@H]4CCC5=CC(=O)C=C[C@]5(C)[C@H]4[C@@H](O)C[C@]3(C)[C@]2(C(=O)CO)O1 (stereo partly shown) [Budesonide, budesonide] | <0.3 | 186.9 | 152.3 | – | – | – | – | – | – | – | – | – |
| C[C@@H]1CCN(C(=O)CC#N)C[C@@H]1N(C)c1ncnc2[nH]ccc12 [Tofacitinib, tofacitinib] | <0.3 | 70 (H) | 5 | – | Marsh 1-2 | normalization of their CD serologies | reversed severe therapy-refractory duodenopathy; also recorded: improvement in their duodenopathy | ameliorated symptoms of CD; also recorded: feeling well with minimum symptoms | Marsh 1-2 | normal villous architecture with focal areas of crypt hyperplasia and an increase in intraepithelial lymphocytes | – | – |
| AMG714: anti-IL-15 mAb | – | – | – | – | – | – | – | – | – | – | positive yet statistically insignificant results | – |
| infliximab | <0.3 | 53.9 (H) | 33.1 (H) | – | Marsh 3A | – | resolution of their ulcerative jejunitis | – | Marsh 3A | – | – | unchanged T-cell aberrancy |
